Measurements from article PMC3921447, “Homologous and heterologous desensitization of guanylyl cyclase-B signaling in GH3 somatolactotropes” (Cell and Tissue Research, 2013).

Biological target: T1, GC-B (Rattus norvegicus, UniProt P16067)
T1 construct: rapid homologous desensitization of endogenous GC-B receptors in GH3 cells; endogenous in cells; host or cells: GH3 rat somatolactotrope cells
T1 sequence (P16067 17-1047): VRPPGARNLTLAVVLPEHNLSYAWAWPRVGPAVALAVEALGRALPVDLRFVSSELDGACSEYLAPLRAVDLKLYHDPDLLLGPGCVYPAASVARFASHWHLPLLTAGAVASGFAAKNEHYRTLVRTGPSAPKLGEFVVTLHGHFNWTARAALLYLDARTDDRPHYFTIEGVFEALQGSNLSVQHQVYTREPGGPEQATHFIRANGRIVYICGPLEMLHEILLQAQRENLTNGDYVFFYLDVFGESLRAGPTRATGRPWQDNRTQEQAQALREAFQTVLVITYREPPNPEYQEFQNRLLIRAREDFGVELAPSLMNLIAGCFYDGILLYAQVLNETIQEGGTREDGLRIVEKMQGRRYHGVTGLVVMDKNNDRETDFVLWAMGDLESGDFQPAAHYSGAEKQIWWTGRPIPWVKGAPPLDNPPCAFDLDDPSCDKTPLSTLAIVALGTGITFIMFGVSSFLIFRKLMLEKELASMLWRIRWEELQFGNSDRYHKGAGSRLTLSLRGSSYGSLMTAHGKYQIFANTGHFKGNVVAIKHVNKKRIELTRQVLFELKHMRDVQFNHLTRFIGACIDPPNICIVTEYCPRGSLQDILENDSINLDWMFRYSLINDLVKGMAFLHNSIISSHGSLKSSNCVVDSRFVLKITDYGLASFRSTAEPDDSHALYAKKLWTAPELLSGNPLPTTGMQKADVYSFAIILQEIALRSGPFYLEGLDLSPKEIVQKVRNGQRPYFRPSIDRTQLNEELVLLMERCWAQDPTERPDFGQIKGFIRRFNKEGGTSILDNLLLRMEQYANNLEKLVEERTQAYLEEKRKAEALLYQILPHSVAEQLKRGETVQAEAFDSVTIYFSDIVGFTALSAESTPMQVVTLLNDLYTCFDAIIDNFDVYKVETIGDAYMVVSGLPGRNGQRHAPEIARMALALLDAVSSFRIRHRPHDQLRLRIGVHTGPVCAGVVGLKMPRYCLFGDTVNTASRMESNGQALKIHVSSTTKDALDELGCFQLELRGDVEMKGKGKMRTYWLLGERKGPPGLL
Test: Effect of natriuretic peptide pre-treatment on CNP-stimulated (GC-B) cGMP accumulation in GH3 cells
Assay type: cell-based
Conditions: 100 nM CNP pre-treatment, then 100 nM CNP 15 min with IBMX; ns, P > 0.05; Fig. 3a
Description: Having established that GC-B signaling but not that of GC-A receptors, underwent rapid homologous desensitization, we next examined the effect of prolonged exposure of each receptor to its specific ligand. GH3 cells pre-treated with either ANP or CNP for 0 (control) to 6 h reduced the response to a subsequent 15-min treatment of ANP or CNP (with IBMX). […] The amount of cGMP measured from the 15-min pre-treatment sample was reduced by 39.6 ± 0.002 % (***P < 0.001). This effect was maintained up to the 6-h pre-treatment with CNP, which was reduced by 37.9 ± 7.1 % compared with the control (***P < 0.001).
Fig. 3 Effect of chronic exposure to CNP and ANP on GC-B- and GC-A-dependent cGMP accumulation in GH3 cells. Cells were initially treated with (a) 100 nM CNP or (b) 100 nM ANP in PSS without IBMX for 0 to 6 h. The medium was removed and replaced with 100 nM CNP (a) or 100 nM ANP (b) for 15 min in the presence of 1 mM IBMX. […]
In similar experiments designed to examine the effect of ANP pre-exposure to GC-A activity, a significant reduction in cGMP accumulation was observed within 30 min of ANP pre-treatment (by 28.9 ± 3.1 % compared with the control, *P < 0.05). […] In order to test the receptor specificity of the observed down-regulation of GC-B upon pre-treatment with CNP and of GC-A upon pre-treatment with ANP, the effects of ANP on GC-B and CNP on GC-A desensitization were determined. […]

CC[C@H](C)[C@@H]1NC(=O)[C@H](CCCNC(=N)N)NC(=O)[C@H](CC(=O)O)NC(=O)[C@H](CC(C)C)NC(=O)[C@H](CCCCN)NC(=O)[C@H](CC(C)C)NC(=O)CNC(=O)[C@H](Cc2ccccc2)NC(=O)[C@@H](NC(=O)CNC(=O)[C@H](CCCCN)NC(=O)[C@H](CO)NC(=O)[C@H](CC(C)C)NC(=O)CN)CSSC[C@@H](C(=O)O)NC(=O)CNC(=O)[C@H](CC(C)C)NC(=O)CNC(=O)[C@H](CO)NC(=O)[C@H](CCSC)NC(=O)[C@H](CO)NC(=O)CNC1=O [CNP, C-type natriuretic peptide]
difference in reduction of cGMP between 15-min and 6-h pre-treatments: did not significantly differ between the 15-min to 6-h pre-treatments
